Data from ChEMBL document CHEMBL4813922, “Discovery of a novel small-molecule inhibitor of Fam20C that induces apoptosis and inhibits migration in triple negative breast cancer” (Eur J Med Chem, 2021).

Legend:
MDA-MB-468 = assay: Antiproliferative activity against human MDA-MB-468 cells measured by MTT assay; type: functional, cell-based
MCF7 = assay: Antiproliferative activity against human MCF7 cells measured by MTT assay; type: functional, cell-based
[1] = molecular target: T1, Extracellular serine/threonine protein kinase FAM20C (Homo sapiens) (UniProt Q8IXL6); assay: Inhibition of Fam20C (unknown origin) assessed as reduction in inorganic phosphate release in presence of ATP at 10 uM measured by Malachite green phosphate staining based micro plate reader assay relative to control
T1 sequence (whole entry): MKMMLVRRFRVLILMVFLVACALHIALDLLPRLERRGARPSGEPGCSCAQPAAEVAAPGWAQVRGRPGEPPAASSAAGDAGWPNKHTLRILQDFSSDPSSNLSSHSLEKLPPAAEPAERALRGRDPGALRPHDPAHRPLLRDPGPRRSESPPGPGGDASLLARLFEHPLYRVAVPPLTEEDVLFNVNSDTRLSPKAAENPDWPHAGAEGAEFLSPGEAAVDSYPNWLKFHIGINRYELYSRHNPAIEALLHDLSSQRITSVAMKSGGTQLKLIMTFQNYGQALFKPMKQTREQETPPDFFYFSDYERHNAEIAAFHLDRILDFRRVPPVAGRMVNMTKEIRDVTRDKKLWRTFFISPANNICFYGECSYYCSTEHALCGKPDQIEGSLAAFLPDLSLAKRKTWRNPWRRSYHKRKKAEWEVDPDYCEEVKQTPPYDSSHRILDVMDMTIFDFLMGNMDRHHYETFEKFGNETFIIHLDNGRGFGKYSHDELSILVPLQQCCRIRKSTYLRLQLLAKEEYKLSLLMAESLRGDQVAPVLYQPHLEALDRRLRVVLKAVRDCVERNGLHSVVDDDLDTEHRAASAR

MDA-MB-231 = assay: Antiproliferative activity against human MDA-MB-231 cells measured by MTT assay; type: functional, cell-based

SMILES	IC50 (MDA-MB-468) [µM]	IC50 (MCF7) [µM]	inhibition [1] [%]	IC50 (MDA-MB-231) [µM]
COc1ccc(Nc2cc(C)nc(Nc3ccc(NS(=O)(=O)c4c(Cl)cc(C)cc4OC)cc3)n2)cc1	> 50	> 50	12	> 50
COc1ccc(Nc2ccnc(Nc3ccc(NS(=O)(=O)c4ccc(C)cc4)cc3)n2)cc1	> 50	> 50	28	21.2
COc1ccc(Nc2cc(C(F)(F)F)nc(Nc3ccc(NS(=O)(=O)c4ccccc4OC(F)(F)F)cc3)n2)cc1	> 50	14	18	32.9
COc1ccc(S(=O)(=O)Nc2ccc(Nc3nccc(-c4ccccc4)n3)cc2)cc1	> 50	> 50	10	> 50
O=S(=O)(Nc1ccc(Nc2nc(Nc3ccc(F)cc3)cc(C(F)(F)F)n2)cc1)c1ccc(C(F)(F)F)cc1	> 50	17.2	15	> 50
COc1ccc(Nc2cc(C(F)(F)F)nc(Nc3ccc(NS(=O)(=O)c4ccccc4Cl)cc3)n2)cc1	> 50	> 50	21	43.6
